For one assay, the system named is BRSNS (Brassica napus). As to the kind of experiment: Drought stress test on greenhouse crop plants, spray application, efficacy EF (BRSNS). The assay is classed as in vivo. The following applies: dosage 25 g/ha, 600 l/ha water, mean of three results. The method, then:
(§1) Seeds of monocotyledonous and dicotyledonous crop plants were laid out in sandy loam in wood-fiber pots, covered with soil and cultivated in a greenhouse under good growth conditions. The test plants were treated at the early leaf stage (BBCH10-BBCH13). To ensure uniform water supply before commencement of stress, the potted plants were supplied with the maximum amount of water immediately beforehand by dam irrigation and, after application, transferred in plastic inserts in order to prevent subsequent, excessively rapid drying. The inventive compounds, formulated in the form of wettable powders (WP), wettable granules (WG), suspension concentrates (SC) or emulsion concentrates (EC), were sprayed onto the green parts of the plants as an aqueous suspension at an equivalent water application rate of 600 l/ha with addition of 0.2% wetting agent (agrotin). Substance application is followed immediately by stress treatment of the plants (cold or drought stress). For cold stress treatment, the plants were kept under the following controlled conditions: • “day”: 12 hours with illumination at 8° C. • “night”: 12 hours without illumination at 1° C. […] The intensity of damage was first assessed as a percentage (100%=plants have died, 0%=like control plants). […]

In the next assay the test system is ZEAMX (Zea mays). The assay is described as follows: Drought stress test on greenhouse crop plants, spray application, efficacy EF (ZEAMX). The format is in vivo. The following applies: dosage 25 g/ha, 600 l/ha water, mean of three results. As for the experimental part: as §1

`CC1=CC(=O)C2CC2(C)C1(O)C#CC1=CC(=O)OC1` (centres unmarked) [I.4-54, 4-[(2-hydroxy-1,3-dimethyl-5-oxobicyclo[4.1.0]hept-3-en-2-yl)ethynyl]furan-2(5H)-one]: in the assay with BRSNS (Brassica napus), the “EF (BRSNS): efficacy = percentage reduction in the intensity of damage” value was >5%. Also, the “EF (ZEAMX): efficacy = percentage reduction in the intensity of damage” value with ZEAMX (Zea mays) was >5%.
